Our source for the IC50 values is PMC7238120, “Strong and Selective Inhibitory Effects of the Biflavonoid Selamariscina A against CYP2C8 and CYP2C9 Enzyme Activities in Human Liver Microsomes” (Pharmaceutics, 2020).

Bounds are passed on as bounds.

The test addresses T1, CYP2A6 (Homo sapiens, UniProt P11509).
T1 construct: incubation mixtures containing pooled human liver microsomes (HLMs, XTreme 200, XenoTech); tissue XenoTech XTreme 200; host or cells: pooled human liver microsomes
T1 sequence (P11509 1-494): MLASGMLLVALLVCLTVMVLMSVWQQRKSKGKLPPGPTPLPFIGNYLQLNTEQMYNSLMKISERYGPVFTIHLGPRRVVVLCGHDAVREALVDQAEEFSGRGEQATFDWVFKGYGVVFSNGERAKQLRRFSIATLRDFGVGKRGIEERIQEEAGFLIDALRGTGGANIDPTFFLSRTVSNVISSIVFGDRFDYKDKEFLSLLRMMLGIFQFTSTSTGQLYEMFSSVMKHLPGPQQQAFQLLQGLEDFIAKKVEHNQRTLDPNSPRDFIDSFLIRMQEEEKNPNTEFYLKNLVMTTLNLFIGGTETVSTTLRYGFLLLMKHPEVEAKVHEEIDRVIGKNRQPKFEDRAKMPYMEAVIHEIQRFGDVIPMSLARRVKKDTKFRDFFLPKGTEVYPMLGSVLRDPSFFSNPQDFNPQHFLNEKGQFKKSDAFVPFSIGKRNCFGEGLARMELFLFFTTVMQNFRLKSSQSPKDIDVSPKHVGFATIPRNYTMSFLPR
Kind of test: Inhibition of CYP2A6 (coumarin) activity in pooled human liver microsomes, cocktail incubation. It counts as in vitro ADME. The conditions noted are these: substrate coumarin 5 µM; pooled HLMs; read-out: IC50, P450 2A6. The method, then:
The inhibitory potential of the five biflavonoids on the metabolism of nine P450 probe substrates was evaluated using previously developed methods with minor modifications. Biflavonoids were dissolved in methanol. The final concentration of methanol in the incubation mixture was 1.0% (v/v). We used these P450 probe substrates: phenacetin for CYP1A2, coumarin for CYP2A6, bupropion for CYP2B6, amodiaquine for CYP2C8, diclofenac for CYP2C9, omeprazole for CYP2C19, dextromethorphan for CYP2D6, chlorzoxazone for CYP2E1 and midazolam for CYP3A (Table 1). The incubation mixtures containing pooled human liver microsomes (HLMs, XTreme 200, XenoTech), P450 probe substrates, and inhibitor (0~20 µM) were pre-incubated at 37 °C for 5 min. The concentration range of the inhibitor varied (0, 0.002, 0.005, 0.02, 0.05, and 0.2 µM for CYP2C8; 0, 0.02, 0.05, 0.2, 0.5, and 2 µM for CYP2C9; 0, 0.5, 2, 5, 10, and 20 µM for other P450 isoforms). After pre-incubation, a reduced nicotinamide adenine dinucleotide phosphate (NADPH) generation system containing 1 unit/ml G6PDH, 1.3 mM β- nicotinamide adenine dinucleotide phosphate (β- NADP^+), 3.3 mM MgCl2, and 3.3 mM G6P was added to initiate a reaction, and further incubated for 10 min at 37 °C. The reaction was stopped by adding 50 μL of ice-cold acetonitrile containing 7 nM trimipramine (internal standard, IS). After centrifugation at 18,000 g (5 min, 4 °C), aliquots of supernatants were analyzed by LC–MS/MS (Shimadzu LCMS 8060 system, Shimadzu, Kyoto, Japan). All microsomal incubations were conducted in triplicate.
All metabolites and the IS were separated on a Kinetex XB-C18 column (100 × 2.10 mm, 2.6 μm, 100 Å; Phenomenex, Torrance, CA, USA) and analyzed using a Shimadzu LCMS 8060 triple-quadrupole mass spectrometer coupled with a Nexera X2 ultra high-performance liquid chromatography system (Shimadzu, Kyoto, Japan) equipped with an electrospray ionization interface. The mobile phase consisted of 0.1% formic acid in water (A) and 0.1% formic acid in acetonitrile (B). The elution condition was set as 8% B (0–0.5 min), 8%→60% B (0.5–5 min), 60% B (5–6 min), 60%→8% B (6–6.1 min) and 8% B (6.1–9 min) for the analysis of metabolites of P450 probe substrates and set as 0%→40% B (0–1 min), 40%→50% B (1–5 min), 50%→0% B (5–5.1 min), and 0% B (5.1–8 min) for the analysis of metabolites of UGT probe substrates. The flow rate was 0.2 mL/min. Electrospray ionization was performed in positive-ion mode at 4000 V or in negative-ion mode at −3500 V. The optimum operating conditions were determined as follows: vaporizer temperature, 300 °C; capillary temperature, 350 °C; collision gas (argon) pressure, 1.5 mTorr. Quantitation was conducted in selected reaction monitoring (SRM) modes with the precursor-to-product ion transition for each metabolite (Table 1 and Table 2).
We analyzed the data with Shimadzu LabSolution LC–MS software. The IC50 values were calculated by WinNonlin software (Pharsight, Mountain View, CA, USA). The type of inhibition and the apparent kinetic parameters for inhibitory activity (Ki) were determined by following several criteria: visual inspection of Dixon plots, Lineweaver–Burk double reciprocal plots, and secondary plots of Lineweaver–Burk plots versus biflavonoid concentrations, the size of the sum of squares of the residuals, Akaike Information Criteria values, the S.E. and 95% confidence interval of the parameter estimates from the nonlinear regression analysis using the WinNonlin software. The models tested included competitive, competitive partial, noncompetitive, noncompetitive partial, uncompetitive, uncompetitive partial, and mixed-type inhibition.
(In general: Liver microsomes are a subcellular fraction often used to study metabolism.)
As for `O=c1cc(-c2ccc(O)c(-c3c(O)cc(O)c4c(=O)cc(-c5ccc(O)cc5)oc34)c2)oc2cc(O)cc(O)c12` [amentoflavone], the IC50 was determined as 11.9 µM.
With `O=c1cc(-c2ccc(O)cc2)oc2c(-c3c(O)cc(O)c4c(=O)cc(-c5ccc(O)cc5)oc34)c(O)cc(O)c12` [cupressuflavone] the figure was greater than 20 µM; with `CC(C)(O)c1ccccc1CC[C@@H](SCC1(CC(=O)O)CC1)c1cccc(/C=C/c2ccc3ccc(Cl)cc3n2)c1` [montelukast, reference compound], greater than 50 µM.
The figure for `O=c1cc(-c2ccc(O)c(-c3c(O)cc4oc(-c5ccc(O)cc5)cc(=O)c4c3O)c2)oc2cc(O)cc(O)c12` [robustaflavone] is 11.8 µM.
For `O=C1CC(c2cc(-c3c(O)ccc4c(=O)cc(-c5ccc(O)cc5)oc34)c(O)cc2O)Oc2cc(O)cc(O)c21` (stereo not drawn) [selamariscina A], the IC50 was determined as 11.6 µM.
As for `O=c1cc(-c2ccc(O)c(-c3c(-c4ccc(O)cc4)oc4cc(O)cc(O)c4c3=O)c2)oc2cc(O)cc(O)c12` [taiwaniaflavone], the concentration for half-maximal inhibition (IC50) worked out at 10.6 µM.

What is called IC50 is the concentration at which inhibition is half-maximal.
